In US20260138976A1 (Hoffmann-La Roche Inc., priority 2022, published 2026):

Tests used:
[1] = molecular target: T1, DGKα (hDGKalpha(1-735)-N-His) (Homo sapiens, UniProt P23743); test: In vitro DGK inhibition assay, DGKalpha ADP Glo (in house); format: biochemical; conditions: 4 nM DGKα, 25 μM ATP, 125 uM DLG in liposomes, 1 hour reaction
T1 construct: hDGKalpha(1-735)-N-His; His (N); made in house; host or cells: Sf21 insect cells (baculovirus)
In short: (§1)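 Full-length His-tagged human DGKα (4 nM) or DGKζ (2 nM), expressed in Sf21 cells, phosphorylated 125 µM DLG in PS/PC liposomes with ATP at 25 µM (α) or 50 µM (ζ) for 1 h. ADP was measured by ADP-Glo luminescence. Compounds were tested as 11-point 1:3 series in 2% DMSO.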

[2] = molecular target: T2, DGKζ (hDGKzeta(1-928)-N-His) (Homo sapiens, UniProt Q13574); test: In vitro DGK inhibition assay, DGKzeta ADP Glo (in house); format: biochemical; conditions: 2 nM DGKζ, 50 μM ATP, 125 uM DLG in liposomes, 1 hour reaction
T2 construct: hDGKzeta(1-928)-N-His; His (N); made in house; host or cells: Sf21 insect cells (baculovirus)
In short: as §1

primary human T-cells = test: Proliferation assay (5 days, CellTiter-Glo, CD3-stimulated T-cells); format: cell-based; conditions: for Emax proliferation (% activation): CD3 condition, normalised to DMSO (neutral) and 20 μM reference compound A1 = 100%; for EC50: Homo sapiens, T-cell, 120 h, CD3-stimulated primary human T-cells, 5 days, CellTiter-Glo, fitted sigmoidal curve, read-out: Tcell Proliferation CD3 EC50
In short: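 Expanded primary human T-cells, 100 k cells/well, were stimulated with plate-coated CD3 antibody (donor-titrated) and given compound in a 5 or 6 pt dose response from 20 μM or 10 μM final top, 0.2% DMSO final. ATP was read by CellTiter-Glo after 5 days. EC50 and Emax were reported as % of 20 μM reference compound A1.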

T2 sequence (Q13574 whole entry): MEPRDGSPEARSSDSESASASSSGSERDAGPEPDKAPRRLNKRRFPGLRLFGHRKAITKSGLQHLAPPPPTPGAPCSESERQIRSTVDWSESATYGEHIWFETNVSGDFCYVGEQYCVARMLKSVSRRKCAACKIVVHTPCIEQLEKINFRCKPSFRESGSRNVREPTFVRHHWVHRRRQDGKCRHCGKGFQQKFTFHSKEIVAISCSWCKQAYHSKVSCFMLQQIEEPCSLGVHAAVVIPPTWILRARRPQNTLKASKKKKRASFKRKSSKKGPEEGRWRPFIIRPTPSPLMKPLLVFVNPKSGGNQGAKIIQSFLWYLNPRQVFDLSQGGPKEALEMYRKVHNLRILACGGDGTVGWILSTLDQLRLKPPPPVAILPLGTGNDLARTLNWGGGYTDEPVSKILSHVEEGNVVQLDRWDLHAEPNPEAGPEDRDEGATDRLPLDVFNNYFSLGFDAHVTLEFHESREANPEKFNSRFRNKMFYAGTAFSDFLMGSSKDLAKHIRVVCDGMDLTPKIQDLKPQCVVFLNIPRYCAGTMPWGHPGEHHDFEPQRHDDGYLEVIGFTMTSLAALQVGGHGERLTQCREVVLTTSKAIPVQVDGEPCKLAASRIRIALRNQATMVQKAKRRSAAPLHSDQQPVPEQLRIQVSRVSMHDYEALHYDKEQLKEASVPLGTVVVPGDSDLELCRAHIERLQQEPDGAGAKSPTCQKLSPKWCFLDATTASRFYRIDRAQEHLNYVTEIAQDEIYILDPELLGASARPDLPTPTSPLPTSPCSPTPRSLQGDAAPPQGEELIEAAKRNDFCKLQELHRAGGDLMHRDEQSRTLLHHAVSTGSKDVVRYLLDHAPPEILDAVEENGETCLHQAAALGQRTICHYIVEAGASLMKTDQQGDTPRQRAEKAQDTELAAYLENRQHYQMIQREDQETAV
T1 sequence (P23743 whole entry): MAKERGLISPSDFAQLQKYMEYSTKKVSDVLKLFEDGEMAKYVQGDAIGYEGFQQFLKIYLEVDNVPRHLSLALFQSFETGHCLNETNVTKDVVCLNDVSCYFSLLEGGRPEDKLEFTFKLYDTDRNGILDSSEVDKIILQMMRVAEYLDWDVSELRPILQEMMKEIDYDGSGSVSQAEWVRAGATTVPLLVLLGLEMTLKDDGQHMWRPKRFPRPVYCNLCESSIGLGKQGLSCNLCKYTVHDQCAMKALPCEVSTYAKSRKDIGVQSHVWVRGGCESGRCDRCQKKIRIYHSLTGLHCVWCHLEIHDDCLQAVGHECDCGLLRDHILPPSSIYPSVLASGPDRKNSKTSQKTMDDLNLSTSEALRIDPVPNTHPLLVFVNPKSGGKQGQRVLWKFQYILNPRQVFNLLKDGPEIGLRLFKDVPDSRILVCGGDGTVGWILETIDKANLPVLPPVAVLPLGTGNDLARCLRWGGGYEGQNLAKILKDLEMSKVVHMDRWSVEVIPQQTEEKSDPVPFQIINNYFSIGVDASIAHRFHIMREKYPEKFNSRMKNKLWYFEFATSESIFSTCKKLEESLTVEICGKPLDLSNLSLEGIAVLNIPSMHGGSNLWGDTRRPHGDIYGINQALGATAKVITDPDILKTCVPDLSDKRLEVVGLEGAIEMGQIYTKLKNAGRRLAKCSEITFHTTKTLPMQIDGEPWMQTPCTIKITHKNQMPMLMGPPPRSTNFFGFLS

Structure (SMILES)	IC50 [1] [nM]	IC50 [2] [nM]	Emax proliferation (% activation) (primary human T-cells)	EC50 (primary human T-cells) [nM]
CC(C)(C)c1nnc(-c2ccc3c(c2)N(Cc2ccc(-c4nnc(C(F)(F)F)o4)cc2)C(=O)[C@@H](N)CS3(=O)=O)o1 [Example 24, (3R)-3-amino-7-(5-tert-butyl-1,3,4-oxadiazol-2-yl)-1,1-dioxo-5-[[4-[5-(trifluoromethyl)-1,3,4-oxadiazol-2-yl]phenyl]methyl]-2,3-dihydro-1λ^6,5-benzothiazepin-4-one]	9860	1440	142	775
CC(C)(C)C(N)c1nnc(-c2ccc3c(c2)N(Cc2ccc(-c4noc(C(F)(F)F)n4)cc2)C(=O)[C@@H](N)CS3(=O)=O)o1 (stereo partly drawn) [Example 34, (3R)-3-amino-7-[5-(1-amino-2,2-dimethyl-propyl)-1,3,4-oxadiazol-2-yl]-1,1-dioxo-5-[[4-[5-(trifluoromethyl)-1,2,4-oxadiazol-3-yl]phenyl]methyl]-2,3-dihydro-1λ^6,5-benzothiazepin-4-one]	12200	1670	67	1180
CC(C#N)c1nnc(-c2ccc3c(c2)N(Cc2ccc(-c4noc(C(F)(F)F)n4)cc2)C(=O)[C@@H](N)CS3(=O)=O)o1 (stereo partly drawn) [Example 35, 2-[5-[(3R)-3-amino-1,1,4-trioxo-5-[[4-[5-(trifluoromethyl)-1,2,4-oxadiazol-3-yl]phenyl]methyl]-2,3-dihydro-1λ^6,5-benzothiazepin-7-yl]-1,3,4-oxadiazol-2-yl]propanenitrile]	10100	3060	99	2490
COC(F)(c1nnc(-c2ccc3c(c2)N(Cc2ccc(-c4noc(C(F)(F)F)n4)cc2)C(=O)[C@@H](N)CS3(=O)=O)o1)C(F)(F)F (stereo partly drawn) [Example 37, (3R)-3-amino-1,1-dioxo-7-[5-(1,2,2,2-tetrafluoro-1-methoxy-ethyl)-1,3,4-oxadiazol-2-yl]-5-[[4-[5-(trifluoromethyl)-1,2,4-oxadiazol-3-yl]phenyl]methyl]-2,3-dihydro-1λ^6,5-benzothiazepin-4-one]	2000	8830	173	304
N[C@H]1CS(=O)(=O)c2ccc(-c3nnc(C4(N)CCCCC4)o3)cc2N(Cc2ccc(-c3ccc(C(F)(F)F)cn3)cc2)C1=O [Example 41, (3R)-3-amino-7-[5-(1-aminocyclohexyl)-1,3,4-oxadiazol-2-yl]-1,1-dioxo-5-[[4-[5-(trifluoromethyl)-2-pyridyl]phenyl]methyl]-2,3-dihydro-1λ^6,5-benzothiazepin-4-one]	30600	3240	85	902
COc1ccc(-c2ccc(CN3C(=O)[C@@H](N)CS(=O)(=O)c4ccc(-c5nnc(C6(N)CCCCC6)o5)cc43)cc2)cc1 [Example 43, (3R)-3-amino-7-[5-(1-aminocyclohexyl)-1,3,4-oxadiazol-2-yl]-5-[[4-(4-methoxyphenyl)phenyl]methyl]-1,1-dioxo-2,3-dihydro-1λ^6,5-benzothiazepin-4-one]	17100	1090	64	284
CN1CCCC(F)(c2nnc(-c3ccc4c(c3)N(Cc3ccc(-c5ccc(C(F)(F)F)cn5)cc3)C(=O)[C@@H](N)CS4(=O)=O)o2)C1 (stereo partly drawn) [Example 51, (3R)-3-amino-7-[5-(3-fluoro-1-methyl-3-piperidyl)-1,3,4-oxadiazol-2-yl]-1,1-dioxo-5-[[4-[5-(trifluoromethyl)-2-pyridyl]phenyl]methyl]-2,3-dihydro-1λ^6,5-benzothiazepin-4-one]	6260	1800	112	882
N[C@H]1CS(=O)(=O)c2ccc(-c3nnc(C4(CO)CCCO4)o3)cc2N(Cc2ccc(-c3noc(C(F)(F)F)n3)cc2)C1=O (stereo partly drawn) [Example 54, (3R)-3-amino-7-[5-[2-(hydroxymethyl)tetrahydrofuran-2-yl]-1,3,4-oxadiazol-2-yl]-1,1-dioxo-5-[[4-[5-(trifluoromethyl)-1,2,4-oxadiazol-3-yl]phenyl]methyl]-2,3-dihydro-1λ^6,5-benzothiazepin-4-one]	12600	1380	94	892

More lines, in order of falling IC50 [1], values ahead:

IC50 [1] [nM]	IC50 [2] [nM]	Structure (SMILES)	Emax proliferation (% activation) (primary human T-cells)	EC50 (primary human T-cells) [nM]
39400	1740	CC(N)(c1nnc(-c2ccc3c(c2)N(Cc2ccc(-c4noc(C(F)(F)F)n4)cc2)C(=O)[C@@H](N)CS3(=O)=O)o1)C(F)(F)F (stereo partly drawn) [Example 32, (3R)-3-amino-7-[5-(1-amino-2,2,2-trifluoro-1-methyl-ethyl)-1,3,4-oxadiazol-2-yl]-1,1-dioxo-5-[[4-[5-(trifluoromethyl)-1,2,4-oxadiazol-3-yl]phenyl]methyl]-2,3-dihydro-1λ^6,5-benzothiazepin-4-one]	153	468
30400	8120	N[C@H]1CS(=O)(=O)c2ccc(-c3nnc(C4(N)CCCCC4)o3)cc2N(Cc2ccc(-c3ccc(C(F)(F)F)cc3)cc2)C1=O [Example 42, (3R)-3-amino-7-[5-(1-aminocyclohexyl)-1,3,4-oxadiazol-2-yl]-1,1-dioxo-5-[[4-[4-(trifluoromethyl)phenyl]phenyl]methyl]-2,3-dihydro-1λ^6,5-benzothiazepin-4-one]	66	123
19000	1780	N[C@H]1CS(=O)(=O)c2ccc(-c3nnc(C4(N)CCCCC4)o3)cc2N(Cc2ccc(-c3noc(C(F)(F)F)n3)cc2)C1=O [Example 39, (3R)-3-amino-7-[5-(1-aminocyclohexyl)-1,3,4-oxadiazol-2-yl]-1,1-dioxo-5-[[4-[5-(trifluoromethyl)-1,2,4-oxadiazol-3-yl]phenyl]methyl]-2,3-dihydro-1λ^6,5-benzothiazepin-4-one]	91	181
9770	1140	CC(C)(C#N)c1nnc(-c2ccc3c(c2)N(Cc2ccc(-c4noc(C(F)(F)F)n4)cc2)C(=O)[C@@H](N)CS3(=O)=O)o1 [Example 38, 2-[5-[(3R)-3-amino-1,1,4-trioxo-5-[[4-[5-(trifluoromethyl)-1,2,4-oxadiazol-3-yl]phenyl]methyl]-2,3-dihydro-1λ^6,5-benzothiazepin-7-yl]-1,3,4-oxadiazol-2-yl]-2-methyl-propanenitrile]	97	640
3380	851	COc1ccc(-c2ccc(CN3C(=O)[C@@H](N)CS(=O)(=O)c4ccc(-c5nnc(C6(F)CCCN(C)C6)o5)cc43)cc2)cc1 (stereo partly drawn) [Example 50, (3R)-3-amino-7-[5-(3-fluoro-1-methyl-3-piperidyl)-1,3,4-oxadiazol-2-yl]-5-[[4-(4-methoxyphenyl)phenyl]methyl]-1,1-dioxo-2,3-dihydro-1λ^6,5-benzothiazepin-4-one]	219	1040
2600	956	N[C@H]1CS(=O)(=O)c2ccc(-c3nnc(C4(C5CC5)CCCO4)o3)cc2N(Cc2ccc(-c3noc(C(F)(F)F)n3)cc2)C1=O (stereo partly drawn) [Example 36, (3R)-3-amino-7-[5-(2-cyclopropyl-tetrahydrofuran-2-yl)-1,3,4-oxadiazol-2-yl]-1,1-dioxo-5-[[4-[5-(trifluoromethyl)-1,2,4-oxadiazol-3-yl]phenyl]methyl]-2,3-dihydro-1λ^6,5-benzothiazepin-4-one]	108	91.7
1990	228	COC(=O)N1CC(c2nnc(-c3ccc4c(c3)N(Cc3ccc(-c5noc(C(C)(C)C)n5)cc3)C(=O)[C@@H](N)CS4(=O)=O)o2)CC(F)(F)C1 (stereo partly drawn) [Example 56, methyl 3,3-difluoro-5-[5-[(3R)-3-amino-5-[[4-(5-tert-butyl-1,2,4-oxadiazol-3-yl)phenyl]methyl]-1,1,4-trioxo-2,3-dihydro-1λ^6,5-benzothiazepin-7-yl]-1,3,4-oxadiazol-2-yl]piperidine-1-carboxylate]	425	2210
1860	1090	Cc1cc(C)n(-c2ccc(CN3C(=O)[C@@H](N)CS(=O)(=O)c4ccc(-c5nnc(C(C)(C)C)o5)cc43)cc2)n1 [Example 22, (3R)-3-amino-7-(5-tert-butyl-1,3,4-oxadiazol-2-yl)-5-[[4-(3,5-dimethylpyrazol-1-yl)phenyl]methyl]-1,1-dioxo-2,3-dihydro-1λ^6,5-benzothiazepin-4-one]	69	3930
